Here are results for four molecules from patent US20030166548A1, “PLAP polypeptides and methods of producing and using same” (Board of Regents, The University of Texas System, priority 1997, published 2003).

Test [1] has as its target T1, PLA2 from bee venom (Apis mellifera, UniProt P00630). Format: biochemical.
The target in test [2] is T2, PLA2 from bovine pancreas (Bos taurus, UniProt P00593). Put plainly: PLA2 assay using unsonicated vesicles. Type of test: biochemical. The settings on record: Bovine P., peptide 1 μg. On the procedure: (§1) In general, assays involve incubation of purified PLA2 or a mixture believed to contain PLA2, such as synovial fluid, with a PLA2 substrate containing radio-labeled arachidonic acid in the presence of the inhibitor of interest. Suitable substrates for PLA2 reactions include any glycerol-3-phosphate with arachidonic acid substituted at the sn-2 position. The preferred substrates of the assays of this invention include [^14C]-arachidonic acid-substituted phosphatidylcholine or [^14C]-arachidonic acid-substituted phosphatidylethanolamine. After the reaction is stopped by addition of chloroform and methanol, TLC chromatography is used to separate the released [^14C] arachidonic acid from [^14C] arachidonic acid-labeled phosphatidylcholine/ethanolamine, which may be quantified by scintillation counting.
T2 sequence (P00593 23-145): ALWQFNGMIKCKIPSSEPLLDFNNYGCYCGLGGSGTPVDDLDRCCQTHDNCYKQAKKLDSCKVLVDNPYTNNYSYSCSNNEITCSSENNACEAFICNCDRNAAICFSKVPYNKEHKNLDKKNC
(§2) Radiolabeled phosphatidylcholine or phosphatidylethanolamine containing [^14C]-arachidonic acid in the sn-2 position of the phospholipid was dried under nitrogen and the lipid vesicles were prepared in 0.05% Triton X-100. The reaction mixture contained 10 μl of phospholipid substrate, 10 μl of 5× assay buffer (500 mM Tris[hydroxymethyl]aminomethane […]HCl (Tris HCl), pH 8.0; 500 mM NaCl; 5.0% fatty acid-free bovine serum albumin (BSA); and 5 mM CaCl2), 10 μl PLA2 enzyme preparation, and sufficient H2O to adjust the total volume to 50 μl The reaction mixture was incubated for 30 minutes at 37° C. in a waterbath and stopped by the addition of 50 μl of chloroform and methanol (1:3), containing 200 μg/ml of unlabeled arachidonic acid and then the mixture was vortexed Lipid was extracted by adding 50 μl of chloroform and 50 μl of 4M KCl, after which, the mixture was vortexed and centrifuged in a microfuge at 14,000 rpm for 10 minutes A 25 μl aliquot of the organic phase was spotted onto glass silica gel plates (Whatman LK6DF) and placed in a thin layer chromatography chamber with a solvent system containing petroleum ether, diethyl ether, and acetic acid (5:25:1) for 30 minutes. The lipid spots were made visible by placing the silica gel plates in a chamber containing iodine vapor. The silica gel region corresponding to arachidonic acid was scraped and transferred to scintillation vials containing 10 ml of scintillation cocktail, which is commercially available and designed to measure the amount of radioactivity in aqueous samples when used with a liquid scintillation counter. The amount of radionuclide corresponding to [^14C]-arachidonic acid in each vial was determined in a Beckman liquid scintillation counter. Results of these assays are shown in Tables 1 and 2 listed after Example 3.

The subject of test [3] is PLA2 from snake venom. In words: PLA2 assay using unsonicated vesicles. Type of test: biochemical. As to conditions: Snake V., peptide 1 μg. On the procedure: as §1, §2
Test [4] deals with PLA2 from synovial fluid from rheumatoid arthritis patients. In words: PLA2 assay using unsonicated vesicles. Type of test: biochemical, human. The settings on record: Synovial F., peptide 1 μg. On the procedure: as §1
Radiolabeled phosphatidylcholine or phosphatidylethanolamine containing [^14C]-arachidonic acid in the sn-2 position of the phospholipid was dried under nitrogen and the lipid vesicles were prepared in 0.05% Triton X-100. […] The silica gel region corresponding to arachidonic acid was scraped and transferred to scintillation vials containing 10 ml of scintillation cocktail, which is commercially available and designed to measure the amount of radioactivity in aqueous samples when used with a liquid scintillation counter. […]

Test [5] addresses T1, PLA2 from bee venom. Put plainly: biochemical. Type of test: biochemical.
Test [6] deals with T2, PLA2 from bovine pancreas. Put plainly: PLA2 assay using [3H]-oleic acid labeled E. coli. Type of test: biochemical. As to conditions: Bovine P., peptide 1 μg. The procedure:
(§3) PLA2 activity may also be assayed using [^3H]-oleic acid labeled Escherichia coli, in a modification of the procedure previously described by [Elsbach and Weiss, 1991]. E. coli cells grown in the presence of [^3H]-oleic acid are incubated with PLA2 enzyme. The reaction is quenched either by addition of 1M HCl or by dilution in cold phosphate buffered saline (PBS). The amount of [^3H]-oleic acid released from the E. coli cells by PLA2 is measured using scintillation counting.
(§4) The procedure is a modification of that described by Elsbach and Weiss (1991). E. coli strain SJ198 was grown in 10 ml M9 minimal medium plus 50 μl glycerol, 100 μl vitamin mix, 40 μl methionine (25 mg/ml), 50 μl [^3H]-oleic acid (0.1 μCi/μl), and 100 μl casamino acids (100 mg/ml). After incubation at 37° C. overnight, the culture was centrifuged and washed three times in PBS, autoclaved for 15 minutes, washed again three times in PBS and stored at −70° C. The reaction mixture contained 10 μl of 5×assay of the PLA2 enzyme preparation, 10 μl of [^3H]-oleic acid-labeled E. coli cells, and enough H2O to adjust the total volume to 50 μl. The reaction mixture was incubated for 15 minutes at 37° C. in a waterbath. To stop the reaction, the tubes were transferred immediately to an ice bath and an equal volume of either 1 M HCl or 4 volumes cold PBS was added. After centrifugation in a microfuge at 4° C. for 10 minutes, an aliquot equal to 25% of the volume of the supernatant was used to measure the amount of [^3H]-labeled oleic acid released from the E. coli cells by PLA2 using liquid scintillation counting.

Test [7] relates to PLA2 from snake venom. Put plainly: PLA2 assay using [3H]-oleic acid labeled E. coli. Format: biochemical. The settings on record: Snake V., peptide 1 μg. The procedure: as §3, §4
Test [8] deals with PLA2 from synovial fluid from rheumatoid arthritis patients. Put plainly: PLA2 assay using [3H]-oleic acid labeled E. coli. Format: biochemical, human. As to conditions: Synovial F., peptide 1 μg. The procedure:
as §3
as §4, with “After centrifugation in a microfuge at 4° C. for 10 minutes, an aliquot equal to 25% of the volume of the supernatant was used to measure the amount of [^3H]-labeled oleic acid released from the E. coli cells by PLA2 using liquid scintillation counting.” left out

In test [9] the target is T3, affinity-purified PLA2 enzyme isolated from synovial fluid of rheumatoid arthritis patients (Homo sapiens, UniProt P14555).
T3 construct: from tissue
T3 sequence (P14555 21-144): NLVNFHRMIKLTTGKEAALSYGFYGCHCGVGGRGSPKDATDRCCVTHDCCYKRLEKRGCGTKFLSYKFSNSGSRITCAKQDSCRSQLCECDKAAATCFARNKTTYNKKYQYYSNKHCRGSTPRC
In words: PLA2 assay, unsonicated vesicles labeled with [14C]-phosphatidylcholine, affinity-purified enzyme. Type of test: biochemical. The procedure:
as §2

Test [10] deals with T3, affinity-purified PLA2 enzyme isolated from synovial fluid of rheumatoid arthritis patients. Put plainly: PLA2 assay, [3H]-oleic acid-E. coli, affinity-purified enzyme. Type of test: biochemical. As to conditions: mean of three determinations. The procedure:
as §4

The next test deals with Human serum PLA2. Put plainly: PLA2 assay of human serum fractions eluted from MLT-Sepharose column, [3H]-oleic acid-labeled E. coli substrate. Format: biochemical. As to conditions: for PLA2 activity: Melittin 5 μM. On the procedure:
as §4
Isolation of PLA2 from human serum: 10 ml of heat-inactivated human serum Gemini Bio Product Inc. (Calabasas, Calif.) was diluted 1:10 with PBS and loaded onto Melittin-Sepharose as well as PLAP-Sepharose columns pre-equilibrated with PBS. Columns were washed with 500 ml of PBS overnight and eluted with 0.5M glycine/HCl buffer, pH 2.8 and 2 ml fractions were collected, neutralized to pH 7.2 with Tris-HCl buffer and analyzed for PLA2 activity using [^3H]labeled oleic acid—E. coli cells as substrate. Eluted fractions were concentrated and dialyzed in centricon 10 (Amicon, Inc., Beverly, Mass.) and the pass through was discarded. The retentate was again passed through centricon 30 and concentrated to about ⅕th of the volume. Both retentate and pass through were subjected to PLA2, assay with and without melittin.

The next test concerns phospholipase D (PLD). In words: Synthetic melittin added to dissociated membranes from U-937 cells. Type of test: biochemical. The settings on record: dissociated membranes from human monocyte cell line U-937.
The subject of another test is synovial fluid PLA2. In words: Interference of streptavidin-peroxidase binding to biotin-melittin by synovial fluid PLA2. More on the design: species or system human. The settings on record: plate coated with biotinylated synthetic melittin, FIG. 6B.
In test [11] the target is human serum PLA2 (human) (UniProt P04054).
Sequence of human serum PLA2 (human) (P04054 23-148 limits assumed): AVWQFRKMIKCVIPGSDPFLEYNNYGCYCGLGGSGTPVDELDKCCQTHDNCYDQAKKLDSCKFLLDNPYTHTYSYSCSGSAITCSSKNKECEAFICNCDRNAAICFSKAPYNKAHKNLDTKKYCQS
In test [12] the target is PLA2 of synovial fluid from rheumatoid arthritis patients (human (rheumatoid arthritis patients)) (UniProt P14555). In words: cell-based or functional assay.
For test [13], the target named is human serum PLA2 (human) (UniProt P04054). In words: cell-based or functional assay.
Test [14] has as its target T4, bee venom PLA2 (bee), P00630.
T4 chain: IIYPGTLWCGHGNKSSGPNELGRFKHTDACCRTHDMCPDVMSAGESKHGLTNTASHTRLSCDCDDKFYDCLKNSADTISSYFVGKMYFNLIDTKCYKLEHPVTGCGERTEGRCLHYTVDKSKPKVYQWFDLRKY
In words: cell-based or functional assay.

The mark [15] stands for this setting: A: [14C]-phosphatidylcholine vesicles.
[16] abbreviates: B: phosphatidylethanolamine vesicles.
Where [17] appears, read: C: [3H]-oleic acid-labeled E. coli, stopped with cold PBS.
The mark [18] stands for this setting: D: [3H]-oleic acid-labeled E. coli, stopped with 1N HCl.

Several values for one entry are separate records, joined by “and”; a condition that tells them apart may be missing. Identical values can stand only once.

The EC50 is the concentration needed to bring the measured effect to its halfway point.

Regarding `CC[C@H](C)[C@H](NC(=O)CN)C(=O)NCC(=O)N[C@@H](C)C(=O)N[C@H](C(=O)N[C@@H](CC(C)C)C(=O)N[C@@H](CCCCN)C(=O)N[C@H](C(=O)N[C@@H](CC(C)C)C(=O)N[C@H](C(=O)N[C@H](C(=O)NCC(=O)N[C@@H](CC(C)C)C(=O)N1CCC[C@H]1C(=O)N[C@@H](C)C(=O)N[C@@H](CC(C)C)C(=O)N[C@H](C(=O)N[C@@H](CO)C(=O)N[C@@H](Cc1c[nH]c2ccccc12)C(=O)N[C@H](C(=O)N[C@@H](CCCCN)C(=O)N[C@@H](CCCNC(=N)N)C(=O)N[C@@H](CCCCN)C(=O)N[C@@H](CCCNC(=N)N)C(=O)N[C@@H](CCC(N)=O)C(=O)N[C@@H](CCC(N)=O)C(N)=O)[C@@H](C)CC)[C@@H](C)CC)[C@@H](C)O)[C@@H](C)O)C(C)C)C(C)C` [Melittin], on PLA2 from bee venom [1], the “type of inhibition of bee venom PLA2” value is “noncompetitive inhibitor”. The “Phospholipase A2 activity” value is 3.6 ± 0.9 × 10^−5 μmoles/min/mg of protein in test [2] (setting [15]); 2.96 ± 0.0 × 10^−3 μmoles/min/mg of protein in [2] (setting [16]); 1.41 ± 0.84 μmoles/min/mg of protein in the test on PLA2 from snake venom [3] (setting [15]); 0.05 ± 0.03 μmoles/min/mg of protein in the test with PLA2 from snake venom [3] (setting [16]); 2.9 ± 0.0 × 10^−4 μmole/min ml in [4] (setting [15]); 4.7 ± 0.0 × 10^−4 μmole/min ml in test [4] (setting [16]). Further, the “Phospholipase A2 activity” value is 801 ± 55.0 μmoles/min/mg of protein and 1315.0 ± 48.2 μmoles/min/mg of protein at PLA2 from bee venom [5]; 0.06 ± 0.03 μmoles/min/mg of protein in test [6] (setting [17]); 1.51 ± 0.17 μmoles/min/mg of protein in [6] (setting [18]); 61.5 ± 2.75 μmoles/min/mg of protein in the test with PLA2 from snake venom [7] (setting [17]); 59.13 ± 13.97 μmoles/min/mg of protein in the test on PLA2 from snake venom [7] (setting [18]); 5.5 ± 0.4 µmol/min/mL in test [8] (setting [17]). Also, in test [8] (setting [18]), the “Phospholipase A2 activity” value came out at 43.65 ± 3.19 µmol/min/mL. A half-maximal effect on PLA2 from bee venom [5] (EC50) was put at 0.02 µM. Also, the “amount of synthetic melittin required to inhibit maximal PLA2 activity” value at PLA2 from bee venom [5] turned out to be 30 mM. For the same molecule, in test [9] (Table 2A, follows Table 2), the “Inhibitory Potency” value was 80%. In test [9] (peptide 1.0 μM, mean of three determinations), the “Phospholipase A2 activity B(× 10^−3) [14C]-phosphatidylcholine” value was 0.055 ± 0.010 × 10^−3 μ moles/min/ml. The “order of inhibitory potency” value in test [9] (rank order from Table 2) is on record as “MLT>G25>G22>G141>G27>G23”. Moreover, the “Phospholipase A2 activity C [3H]-oleic acid-E. coli” value in test [10] (peptide 1.0 μM) is on record as 0.50 ± 0.12 μ moles/min/ml; in [10] (peptide 5.0 μM) it was 0.12 ± 0.02 μ moles/min/ml; in test [10] (peptide 10 μM), 0.06 ± 0.03 μ moles/min/ml. The results for the PLA2 activity in the test with Human serum PLA2 (Human serum PLA2 eluted from MLT-Sepharose column), in the test with Human serum PLA2 (eluate Centricon 30 concentrated (5 times)) and in the test with Human serum PLA2 (eluate Centricon 30 pass through) were 219 ± 16.3 nano mol/min/ml, 192 ± 5.44 nano mol/min/ml and 172 ± 8.73 nano mol/min/ml, respectively. The “reduction in PLA2 activity in the presence of melittin” value in the test with Human serum PLA2 (fractions after concentration by centricon 10 or 30) is given as 4 fold. In addition, the “effect on phospholipase D (PLD)” value was “stimulates PLD” in the test on phospholipase D (PLD); “resulted in the formation of phosphatidic acid and release of arachidosic acid” with phospholipase D (PLD) (listed as synthetic melittin).

Turning to “biotinylated synthetic melittin: biotinylated synthetic melittin used to coat microtiter plates”, the “interference of synovial fluid with streptavidin-peroxidase binding” value with synovial fluid PLA2 was “dose-dependent interference”.

Turning to synthetic melittin (peptide), in the test with human serum PLA2 (human) [11], the Purification is 1520 fold. Also, the Inhibitory Potency in test [12] is 80%. Further, the reduction in PLA2 activity in the presence of melittin with human serum PLA2 (human) [13] worked out at 4 fold.

Turning to GIGAVLKVLTTGLPALISWIKRKRQQ (modifications not checked) [synthetic melittin], the molar ratio of melittin to PLA2 at maximal inhibition (mol melittin per mol PLA2) in test [14] worked out at 30.
